Results published in paper PMC13210772, “Dual FLT3/MAPK14 Proteolysis-Targeting Chimera (PROTAC) Induces Potent Acute Myeloid Leukemia Cell Death” (Pharmaceuticals, 2026).

Tests used:
Assay in all cases: NanoBRET CELLinib128
Assay type in all cases: binding
EPHA6 = target: T1, EPHA6 (Homo sapiens, UniProt Q9UF33); details: 100% no effect, 0% complete tracer displacement, read-out: Tracer bound
T1 construct: Full-length kinase ORF (Promega, Madison, WI, USA) cloned in frame with a NanoLuc-vector was transfected into HEK293T cells; host or cells: HEK293T
Experimental: (§1) To get an impression about the binding strength of the PROTAC MA191 and the reference inhibitor MA68 to other kinases besides FLT3-ITD the binding on a kinase panel of further 128 representative protein kinases at 1 μM concentration was tested using the NanoBRET^TM cellular target engagement assay (CELLinib128 assay, CELLinib GmbH, Frankfurt, Germany). […] In none of the 128 kinases MA191 was able to displace the tracer (inhibitor) used by more than 50%, Table S1, Supplementary Information).
(§2) The CELLinib128 assay was performed by CELLinib GmbH, Frankfurt (Germany) as described previously. In brief: Full-length kinase ORF (Promega, Madison, WI, USA) cloned in frame with a NanoLuc-vector was transfected into HEK293T cells in Opti-MEM without phenol red (Life Technologies, Carlsbad, CA, USA) at a density of 2 × 10^5 cells/mL using FuGENE HD (Promega, E2312) and proteins were allowed to express for 20 h. For CDKs, where indicated below, an excess of an activator without an NLuc-fusion was cotransfected. […] The system was allowed to equilibrate at 37 °C for 2 h and 5% CO2 prior to BRET measurements. For PKCs, a chemical activator PMA was added in a final concentration of 1 µM was added together with test compounds and tracers (Promega, V1171). To measure BRET, NanoBRET^TM NanoGlo substrate + extracellular NanoLuc inhibitor (Promega, N2160) were added as per the manufacturer’s protocol, and filtered luminescence was measured (450 nm BP filter (donor) and 610 nm LP filter (acceptor)). For the 1-shot test compounds, data were normalized to the tracer control and the background control or control compound plateau and an average and SD were calculated. […] For the control compounds competitive displacement data were normalized to the tracer Ctrl and the background Ctrl and then plotted and fitted using GraphPad Prism 10 software using a normalized 3-parameter curve fit with the following equation: Y = 100/(1 + 10^X−LogIC50).

CHEK2 = target: T2, CHEK2 (Homo sapiens, UniProt O96017); details: 100% no effect, 0% complete tracer displacement, read-out: Tracer bound
T2 construct: Full-length kinase ORF (Promega, Madison, WI, USA) cloned in frame with a NanoLuc-vector was transfected into HEK293T cells; host or cells: HEK293T
Experimental: as §1, §2

MAP4K1 = target: T3, MAP4K1 (Homo sapiens, UniProt Q92918); details: 100% no effect, 0% complete tracer displacement, read-out: Tracer bound
T3 construct: Full-length kinase ORF (Promega, Madison, WI, USA) cloned in frame with a NanoLuc-vector was transfected into HEK293T cells; host or cells: HEK293T
Experimental: as §1, §2

STK4 = target: T4, STK4 (Homo sapiens, UniProt Q13043); details: 1 µM; 100% no effect, 0% complete tracer displacement
T4 construct: Full-length kinase ORF (Promega, Madison, WI, USA) cloned in frame with a NanoLuc-vector was transfected into HEK293T cells; host or cells: HEK293T
Experimental: as §1, §2

PTK2 = target: T5, PTK2 (Homo sapiens, UniProt Q05397); details: 100% no effect, 0% complete tracer displacement, read-out: Tracer bound
T5 construct: Full-length kinase ORF (Promega, Madison, WI, USA) cloned in frame with a NanoLuc-vector was transfected into HEK293T cells; host or cells: HEK293T
Experimental: as §1, §2

NUAK1 = target: T6, NUAK1 (Homo sapiens, UniProt O60285); details: 1 µM; 100% no effect, 0% complete tracer displacement
T6 construct: Full-length kinase ORF (Promega, Madison, WI, USA) cloned in frame with a NanoLuc-vector was transfected into HEK293T cells; host or cells: HEK293T
Experimental: as §1, §2

STK38L = target: T7, STK38L (Homo sapiens, UniProt Q9Y2H1); details: 100% no effect, 0% complete tracer displacement, read-out: Tracer bound
T7 construct: Full-length kinase ORF (Promega, Madison, WI, USA) cloned in frame with a NanoLuc-vector was transfected into HEK293T cells; host or cells: HEK293T
Experimental: as §1, §2

IRAK4 = target: T8, IRAK4 (Homo sapiens, UniProt Q9NWZ3); details: 1 µM; 100% no effect, 0% complete tracer displacement
T8 construct: Full-length kinase ORF (Promega, Madison, WI, USA) cloned in frame with a NanoLuc-vector was transfected into HEK293T cells; host or cells: HEK293T
Experimental: as §1, §2

RPS6KA3 = target: T9, RPS6KA3 (Homo sapiens, UniProt P51812); details: 100% no effect, 0% complete tracer displacement, read-out: Tracer bound
T9 construct: Full-length kinase ORF (Promega, Madison, WI, USA) cloned in frame with a NanoLuc-vector was transfected into HEK293T cells; host or cells: HEK293T
Experimental: as §1, §2

CDK4-CCND3 = target: T10, CDK4-CCND3 (Homo sapiens, UniProt P11802); details: 100% no effect, 0% complete tracer displacement, read-out: Tracer bound
T10 construct: Full-length kinase ORF (Promega, Madison, WI, USA) cloned in frame with a NanoLuc-vector was transfected into HEK293T cells; host or cells: HEK293T
T10 sequence (P11802 whole entry): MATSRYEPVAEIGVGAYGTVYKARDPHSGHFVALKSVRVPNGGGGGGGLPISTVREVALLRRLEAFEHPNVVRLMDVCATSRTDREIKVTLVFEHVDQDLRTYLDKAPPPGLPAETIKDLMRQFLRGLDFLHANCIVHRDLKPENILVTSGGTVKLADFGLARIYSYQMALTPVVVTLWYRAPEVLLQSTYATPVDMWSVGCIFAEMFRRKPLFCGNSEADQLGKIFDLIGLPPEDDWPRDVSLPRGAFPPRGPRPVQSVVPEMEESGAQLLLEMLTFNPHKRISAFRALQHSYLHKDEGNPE
T10 sequence (P30281 whole entry partner): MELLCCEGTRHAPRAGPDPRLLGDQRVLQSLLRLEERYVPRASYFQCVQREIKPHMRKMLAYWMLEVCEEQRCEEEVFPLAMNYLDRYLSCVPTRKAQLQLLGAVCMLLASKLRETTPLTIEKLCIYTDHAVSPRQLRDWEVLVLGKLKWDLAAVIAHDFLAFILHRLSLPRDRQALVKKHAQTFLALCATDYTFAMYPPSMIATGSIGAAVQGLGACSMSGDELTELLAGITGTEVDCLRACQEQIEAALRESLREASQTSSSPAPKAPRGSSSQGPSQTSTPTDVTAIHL
Experimental: as §1, §2

TYK2 = target: T11, TYK2 (Homo sapiens, UniProt P29597); details: 1 µM; 100% no effect, 0% complete tracer displacement
T11 construct: Full-length kinase ORF (Promega, Madison, WI, USA) cloned in frame with a NanoLuc-vector; host or cells: HEK293T
T11 sequence (P29597 whole entry): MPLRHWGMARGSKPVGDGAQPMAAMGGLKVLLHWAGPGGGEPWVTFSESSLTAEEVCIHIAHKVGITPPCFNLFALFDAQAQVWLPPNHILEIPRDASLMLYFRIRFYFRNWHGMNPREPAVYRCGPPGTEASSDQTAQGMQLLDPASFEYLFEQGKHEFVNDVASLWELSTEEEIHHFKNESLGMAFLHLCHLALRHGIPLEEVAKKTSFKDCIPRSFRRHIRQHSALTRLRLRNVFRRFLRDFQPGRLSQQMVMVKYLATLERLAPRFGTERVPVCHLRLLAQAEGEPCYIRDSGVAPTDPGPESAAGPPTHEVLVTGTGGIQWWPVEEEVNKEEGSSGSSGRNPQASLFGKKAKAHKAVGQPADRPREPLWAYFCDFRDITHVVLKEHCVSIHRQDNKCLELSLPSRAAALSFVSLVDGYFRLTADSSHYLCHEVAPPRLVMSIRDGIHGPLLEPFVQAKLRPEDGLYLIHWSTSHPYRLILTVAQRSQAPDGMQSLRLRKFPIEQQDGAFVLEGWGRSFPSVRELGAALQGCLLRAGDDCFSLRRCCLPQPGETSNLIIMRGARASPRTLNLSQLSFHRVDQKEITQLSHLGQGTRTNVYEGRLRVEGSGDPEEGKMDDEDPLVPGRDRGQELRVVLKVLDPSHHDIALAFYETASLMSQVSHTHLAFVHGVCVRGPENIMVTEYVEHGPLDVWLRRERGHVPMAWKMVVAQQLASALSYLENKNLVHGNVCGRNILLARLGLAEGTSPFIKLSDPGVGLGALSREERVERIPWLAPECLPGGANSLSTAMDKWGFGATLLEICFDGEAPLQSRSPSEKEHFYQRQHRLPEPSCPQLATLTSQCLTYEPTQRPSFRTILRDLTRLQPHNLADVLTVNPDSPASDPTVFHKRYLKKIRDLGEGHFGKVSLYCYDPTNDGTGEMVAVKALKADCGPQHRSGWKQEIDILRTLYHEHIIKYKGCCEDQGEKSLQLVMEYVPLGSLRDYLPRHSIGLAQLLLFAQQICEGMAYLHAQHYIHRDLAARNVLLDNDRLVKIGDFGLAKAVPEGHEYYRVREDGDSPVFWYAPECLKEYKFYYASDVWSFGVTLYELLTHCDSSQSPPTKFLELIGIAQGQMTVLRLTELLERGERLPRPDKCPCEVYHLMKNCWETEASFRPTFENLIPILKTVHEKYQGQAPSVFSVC
Experimental: as §1, §2

PRKCQ-PMA = target: T12, PRKCQ-PMA (Homo sapiens, UniProt Q04759); details: 100% no effect, 0% complete tracer displacement, read-out: Tracer bound
T12 construct: Full-length kinase ORF (Promega, Madison, WI, USA) cloned in frame with a NanoLuc-vector was transfected into HEK293T cells; host or cells: HEK293T
Experimental: as §1, §2

JAK3 = target: T13, JAK3 (Homo sapiens, UniProt P52333); details: 100% no effect, 0% complete tracer displacement, read-out: Tracer bound
T13 construct: Full-length kinase ORF (Promega, Madison, WI, USA) cloned in frame with a NanoLuc-vector was transfected into HEK293T cells; host or cells: HEK293T
T13 sequence (P52333 whole entry): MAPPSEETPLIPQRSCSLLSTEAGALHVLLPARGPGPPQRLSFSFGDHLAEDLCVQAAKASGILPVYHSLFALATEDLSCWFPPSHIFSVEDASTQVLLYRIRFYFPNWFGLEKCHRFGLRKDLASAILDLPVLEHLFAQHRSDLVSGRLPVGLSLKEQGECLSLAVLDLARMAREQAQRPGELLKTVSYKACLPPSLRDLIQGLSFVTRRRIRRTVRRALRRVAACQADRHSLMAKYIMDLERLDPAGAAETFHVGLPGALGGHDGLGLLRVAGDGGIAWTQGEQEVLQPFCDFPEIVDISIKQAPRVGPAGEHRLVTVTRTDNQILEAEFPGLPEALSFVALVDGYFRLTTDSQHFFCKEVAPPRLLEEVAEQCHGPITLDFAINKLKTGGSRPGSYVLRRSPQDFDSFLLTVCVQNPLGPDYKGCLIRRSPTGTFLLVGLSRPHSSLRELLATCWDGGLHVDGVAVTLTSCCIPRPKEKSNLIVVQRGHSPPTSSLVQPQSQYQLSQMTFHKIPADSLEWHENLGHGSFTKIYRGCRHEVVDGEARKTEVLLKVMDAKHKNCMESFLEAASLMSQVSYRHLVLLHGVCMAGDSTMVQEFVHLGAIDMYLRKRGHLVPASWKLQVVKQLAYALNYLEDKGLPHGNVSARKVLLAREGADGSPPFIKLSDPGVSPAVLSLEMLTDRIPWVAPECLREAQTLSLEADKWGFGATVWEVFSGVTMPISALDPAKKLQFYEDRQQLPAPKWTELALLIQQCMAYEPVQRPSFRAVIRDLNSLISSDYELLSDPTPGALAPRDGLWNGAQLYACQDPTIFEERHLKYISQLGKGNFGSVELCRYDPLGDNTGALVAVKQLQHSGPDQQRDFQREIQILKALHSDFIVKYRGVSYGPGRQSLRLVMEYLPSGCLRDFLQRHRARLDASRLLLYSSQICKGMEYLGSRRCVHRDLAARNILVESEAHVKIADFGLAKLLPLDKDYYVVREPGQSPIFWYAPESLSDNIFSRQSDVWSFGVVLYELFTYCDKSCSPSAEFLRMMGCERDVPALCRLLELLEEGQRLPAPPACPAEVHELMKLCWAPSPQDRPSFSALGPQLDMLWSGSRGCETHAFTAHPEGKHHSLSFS
Experimental: as §1, §2

WEE2 = target: T14, WEE2 (Homo sapiens, UniProt P0C1S8); details: 100% no effect, 0% complete tracer displacement, read-out: Tracer bound
T14 construct: Full-length kinase ORF (Promega, Madison, WI, USA) cloned in frame with a NanoLuc-vector; host or cells: HEK293T
Experimental: as §1, §2

CSNK2A2 = target: T15, CSNK2A2 (Homo sapiens, UniProt P19784); details: 100% no effect, 0% complete tracer displacement, read-out: Tracer bound
T15 construct: Full-length kinase ORF (Promega, Madison, WI, USA) cloned in frame with a NanoLuc-vector was transfected into HEK293T cells; host or cells: HEK293T
Experimental: as §1, §2

CDK14-CCNY = target: T16, CDK14-CCNY (Homo sapiens, UniProt O94921); details: 1 µM; 100% no effect, 0% complete tracer displacement
T16 construct: Full-length kinase ORF (Promega, Madison, WI, USA) cloned in frame with a NanoLuc-vector was transfected into HEK293T cells; host or cells: HEK293T
Experimental: as §1, §2

STK33 = target: T17, STK33 (Homo sapiens, UniProt Q9BYT3); details: 100% no effect, 0% complete tracer displacement, read-out: Tracer bound
T17 construct: Full-length kinase ORF (Promega, Madison, WI, USA) cloned in frame with a NanoLuc-vector was transfected into HEK293T cells; host or cells: HEK293T
T17 sequence (Q9BYT3 whole entry): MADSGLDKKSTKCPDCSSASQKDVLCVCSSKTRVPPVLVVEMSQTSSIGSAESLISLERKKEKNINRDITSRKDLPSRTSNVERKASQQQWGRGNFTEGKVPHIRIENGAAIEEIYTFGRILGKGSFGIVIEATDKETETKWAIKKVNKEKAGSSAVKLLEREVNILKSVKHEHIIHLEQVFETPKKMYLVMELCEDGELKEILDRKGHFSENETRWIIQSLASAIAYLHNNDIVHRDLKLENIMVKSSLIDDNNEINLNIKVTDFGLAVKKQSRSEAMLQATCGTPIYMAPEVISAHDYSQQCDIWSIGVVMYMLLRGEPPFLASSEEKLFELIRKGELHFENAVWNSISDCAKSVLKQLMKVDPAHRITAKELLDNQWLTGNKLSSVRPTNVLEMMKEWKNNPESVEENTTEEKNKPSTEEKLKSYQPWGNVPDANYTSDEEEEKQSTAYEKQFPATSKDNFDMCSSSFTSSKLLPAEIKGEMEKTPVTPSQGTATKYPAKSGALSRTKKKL
Experimental: as §1, §2

SIK3 = target: T18, SIK3 (Homo sapiens, UniProt Q9Y2K2); details: 1 µM; 100% no effect, 0% complete tracer displacement
T18 construct: Full-length kinase ORF (Promega, Madison, WI, USA) cloned in frame with a NanoLuc-vector was transfected into HEK293T cells; host or cells: HEK293T
Experimental: as §1, §2

ERN1 = target: T19, ERN1 (Homo sapiens, UniProt O75460); details: 100% no effect, 0% complete tracer displacement, read-out: Tracer bound
T19 construct: Full-length kinase ORF (Promega, Madison, WI, USA) cloned in frame with a NanoLuc-vector was transfected into HEK293T cells; host or cells: HEK293T
Experimental: as §1, §2

MAP3K11 = target: T20, MAP3K11 (Homo sapiens, UniProt Q16584); details: 1 µM; 100% no effect, 0% complete tracer displacement
T20 construct: Full-length kinase ORF (Promega, Madison, WI, USA) cloned in frame with a NanoLuc-vector was transfected into HEK293T cells; host or cells: HEK293T
Experimental: as §1, §2

PRKCD-PMA = target: T21, PRKCD-PMA (Homo sapiens, UniProt Q05655); details: 100% no effect, 0% complete tracer displacement, read-out: Tracer bound
T21 construct: Full-length kinase ORF (Promega, Madison, WI, USA) cloned in frame with a NanoLuc-vector was transfected into HEK293T cells; host or cells: HEK293T
Experimental: as §1, §2

STK35 = target: T22, STK35 (Homo sapiens, UniProt Q8TDR2); details: 100% no effect, 0% complete tracer displacement, read-out: Tracer bound
T22 construct: Full-length kinase ORF (Promega, Madison, WI, USA) cloned in frame with a NanoLuc-vector was transfected into HEK293T cells; host or cells: HEK293T
Experimental: as §1, §2

HUNK = target: T23, HUNK (Homo sapiens, UniProt P57058); details: 100% no effect, 0% complete tracer displacement, read-out: Tracer bound
T23 construct: Full-length kinase ORF (Promega, Madison, WI, USA) cloned in frame with a NanoLuc-vector was transfected into HEK293T cells; host or cells: HEK293T
Experimental: as §1, §2

TNNI3K = target: T24, TNNI3K (Homo sapiens, UniProt Q59H18); details: 100% no effect, 0% complete tracer displacement, read-out: Tracer bound
T24 construct: Full-length kinase ORF (Promega, Madison, WI, USA) cloned in frame with a NanoLuc-vector; host or cells: HEK293T
Experimental: as §1, §2

RIOK2 = target: T25, RIOK2 (Homo sapiens, UniProt Q9BVS4); details: 100% no effect, 0% complete tracer displacement, read-out: Tracer bound
T25 construct: Full-length kinase ORF (Promega, Madison, WI, USA) cloned in frame with a NanoLuc-vector was transfected into HEK293T cells; host or cells: HEK293T
Experimental: as §1, §2

PRKACB = target: T26, PRKACB (Homo sapiens, UniProt P22694); details: 100% no effect, 0% complete tracer displacement, read-out: Tracer bound
T26 construct: Full-length kinase ORF (Promega, Madison, WI, USA) cloned in frame with a NanoLuc-vector was transfected into HEK293T cells; host or cells: HEK293T
Experimental: as §1, §2

SNRK = target: T27, SNRK (Homo sapiens, UniProt Q9NRH2); details: 100% no effect, 0% complete tracer displacement, read-out: Tracer bound
T27 construct: Full-length kinase ORF (Promega, Madison, WI, USA) cloned in frame with a NanoLuc-vector was transfected into HEK293T cells; host or cells: HEK293T
Experimental: as §1, §2

STK36 = target: T28, STK36 (Homo sapiens, UniProt Q9NRP7); details: 100% no effect, 0% complete tracer displacement, read-out: Tracer bound
T28 construct: Full-length kinase ORF (Promega, Madison, WI, USA) cloned in frame with a NanoLuc-vector was transfected into HEK293T cells; host or cells: HEK293T
T28 sequence (Q9NRP7 whole entry): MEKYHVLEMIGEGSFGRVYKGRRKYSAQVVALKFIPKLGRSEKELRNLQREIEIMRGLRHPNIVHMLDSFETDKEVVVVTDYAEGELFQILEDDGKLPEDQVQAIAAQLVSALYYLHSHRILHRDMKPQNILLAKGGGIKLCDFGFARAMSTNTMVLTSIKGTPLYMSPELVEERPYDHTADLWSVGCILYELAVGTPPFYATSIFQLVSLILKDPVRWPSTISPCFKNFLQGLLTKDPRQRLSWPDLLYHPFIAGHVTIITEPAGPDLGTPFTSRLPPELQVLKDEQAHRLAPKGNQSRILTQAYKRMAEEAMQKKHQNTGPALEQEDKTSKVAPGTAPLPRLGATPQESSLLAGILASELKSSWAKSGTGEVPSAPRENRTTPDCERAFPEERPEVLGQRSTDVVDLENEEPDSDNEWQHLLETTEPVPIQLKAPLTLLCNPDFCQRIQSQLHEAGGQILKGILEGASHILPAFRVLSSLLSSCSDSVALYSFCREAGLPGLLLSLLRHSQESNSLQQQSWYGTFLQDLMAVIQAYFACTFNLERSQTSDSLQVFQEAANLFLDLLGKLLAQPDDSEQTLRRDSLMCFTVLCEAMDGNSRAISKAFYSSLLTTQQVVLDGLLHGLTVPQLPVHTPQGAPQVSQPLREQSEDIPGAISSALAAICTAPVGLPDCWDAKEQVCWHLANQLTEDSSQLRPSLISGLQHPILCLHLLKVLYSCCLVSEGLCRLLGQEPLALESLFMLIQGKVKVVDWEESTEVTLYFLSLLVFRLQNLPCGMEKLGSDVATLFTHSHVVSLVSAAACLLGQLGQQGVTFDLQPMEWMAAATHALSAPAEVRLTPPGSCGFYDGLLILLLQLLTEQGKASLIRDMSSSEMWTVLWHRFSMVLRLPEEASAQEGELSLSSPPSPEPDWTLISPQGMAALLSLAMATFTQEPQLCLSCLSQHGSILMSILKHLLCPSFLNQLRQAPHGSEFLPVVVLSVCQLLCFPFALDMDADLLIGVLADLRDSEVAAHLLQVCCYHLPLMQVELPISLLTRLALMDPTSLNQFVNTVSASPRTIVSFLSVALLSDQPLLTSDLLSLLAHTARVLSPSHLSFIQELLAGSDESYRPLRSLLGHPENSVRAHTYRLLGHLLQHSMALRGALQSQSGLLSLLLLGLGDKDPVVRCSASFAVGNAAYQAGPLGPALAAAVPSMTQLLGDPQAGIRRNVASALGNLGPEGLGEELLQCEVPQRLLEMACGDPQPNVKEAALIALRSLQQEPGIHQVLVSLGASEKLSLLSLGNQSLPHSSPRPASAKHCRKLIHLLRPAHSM
Experimental: as §1, §2

AURKB = target: T29, AURKB (Homo sapiens, UniProt Q96GD4); details: 100% no effect, 0% complete tracer displacement, read-out: Tracer bound
T29 construct: Full-length kinase ORF (Promega, Madison, WI, USA) cloned in frame with a NanoLuc-vector was transfected into HEK293T cells; host or cells: HEK293T
Experimental: as §1, §2

PHKG1 = target: T30, PHKG1 (Homo sapiens, UniProt Q16816); details: 100% no effect, 0% complete tracer displacement, read-out: Tracer bound
T30 construct: Full-length kinase ORF (Promega, Madison, WI, USA) cloned in frame with a NanoLuc-vector was transfected into HEK293T cells; host or cells: HEK293T
Experimental: as §1, §2

remaining activity at 1 µM (EPHA6): 82.5% | remaining activity at 1 µM (CHEK2): 111% | remaining activity at 1 µM (MAP4K1): 105% | Tracer bound (STK4): 102.0% | remaining activity at 1 µM (PTK2): 113% | Tracer bound (NUAK1): 120.0% | remaining activity at 1 µM (STK38L): 90% | Tracer bound (IRAK4): 114.7% | remaining activity at 1 µM (RPS6KA3): 120% | remaining activity at 1 µM (CDK4-CCND3): 105% | Tracer bound (TYK2): 105.6% | remaining activity at 1 µM (PRKCQ-PMA): 104% | remaining activity at 1 µM (JAK3): 117% | remaining activity at 1 µM (WEE2): 99.3% | remaining activity at 1 µM (CSNK2A2): 114% | Tracer bound (CDK14-CCNY): 95.7% | remaining activity at 1 µM (STK33): 99% | Tracer bound (SIK3): 106.3% | remaining activity at 1 µM (ERN1): 116% | Tracer bound (MAP3K11): 108.2% | remaining activity at 1 µM (PRKCD-PMA): 115% | remaining activity at 1 µM (STK35): 95.8% | remaining activity at 1 µM (HUNK): 103% | remaining activity at 1 µM (TNNI3K): 83.2% | remaining activity at 1 µM (RIOK2): 115% | remaining activity at 1 µM (PRKACB): 106% | remaining activity at 1 µM (SNRK): 97% | remaining activity at 1 µM (STK36): 119% | remaining activity at 1 µM (AURKB): 109% | remaining activity at 1 µM (PHKG1): 93.5%
Structure (SMILES): Cc1ncsc1-c1ccc([C@H](C)NC(=O)[C@@H]2C[C@@H](O)CN2C(=O)[C@@H](NC(=O)[C@H]2CC[C@H](C(=O)N3CCN(CCNC(=O)c4cc(Oc5ccc(NC(=O)Nc6cc(C(C)(C)C)on6)cc5)ccn4)CC3)CC2)C(C)(C)C)cc1 [MA191, 4-(4-(3-(5-(tert-Butyl)isoxazol-3-yl)ureido)phenoxy)-N-(2-(4-(trans-4-(((S)-1-((2S,4R)-4-hydroxy-2-(((S)-1-(4-(4-methylthiazol-5-yl)phenyl)ethyl)carbamoyl)pyrrolidin-1-yl)-3,3-dimethyl-1-oxobutan-2-yl)carbamoyl)cyclohexanecarbonyl)piperazin-1-yl)ethyl)picolinamide]
